From the kinase profiling compilation of Christmann-Franck et al. (2016)

Experiments:
AAK1 (human) = AAK1 (human) (UniProt Q2M2I8); experiment: KINOMEscan competition binding; details: compound 10.0 µM
ACVR2B (human) = ACVR2B (human) (UniProt Q13705); experiment: KINOMEscan competition binding; details: compound 10.0 µM
CAMK1 (human) = CAMK1 (human) (UniProt Q14012); experiment: KINOMEscan competition binding; details: compound 10.0 µM
CAMK1D (human) = CAMK1D (human) (UniProt Q8IU85); experiment: KINOMEscan competition binding; details: compound 10.0 µM
CAMK2B (human) = CAMK2B (human) (UniProt Q13554); experiment: KINOMEscan competition binding; details: compound 10.0 µM
CLK2 (human) = CLK2 (human) (UniProt P49760); experiment: KINOMEscan competition binding; details: compound 10.0 µM
CSK (human) = CSK (human) (UniProt P41240); experiment: KINOMEscan competition binding; details: compound 10.0 µM
CSNK2A2 (human) = CSNK2A2 (human) (UniProt P19784); experiment: KINOMEscan competition binding; details: compound 10.0 µM
DAPK1 (human) = DAPK1 (human) (UniProt P53355); experiment: KINOMEscan competition binding; details: compound 10.0 µM
DAPK2 (human) = DAPK2 (human) (UniProt Q9UIK4); experiment: KINOMEscan competition binding; details: compound 10.0 µM
DAPK3 (human) = DAPK3 (human) (UniProt O43293); experiment: KINOMEscan competition binding; details: compound 10.0 µM
DDR1 (human) = DDR1 (human) (UniProt Q08345); experiment: KINOMEscan competition binding; details: compound 10.0 µM
EPHA3 (human) = EPHA3 (human) (UniProt P29320); experiment: KINOMEscan competition binding; details: compound 10.0 µM
GAK (human) = GAK (human) (UniProt O14976); experiment: KINOMEscan competition binding; details: compound 10.0 µM
GSK3A (human) = GSK3A (human) (UniProt P49840); experiment: KINOMEscan competition binding; details: compound 10.0 µM
HIPK1 (human) = HIPK1 (human) (UniProt Q86Z02); experiment: KINOMEscan competition binding; details: compound 10.0 µM
LATS2 (human) = LATS2 (human) (UniProt Q9NRM7); experiment: KINOMEscan competition binding; details: compound 10.0 µM
MAP2K3 (human) = MAP2K3 (human) (UniProt P46734); experiment: KINOMEscan competition binding; details: compound 10.0 µM
MAP3K7 (human) = MAP3K7 (human) (UniProt O43318); experiment: KINOMEscan competition binding; details: compound 10.0 µM
MAPK10 (human) = MAPK10 (human) (UniProt P53779); experiment: KINOMEscan competition binding; details: compound 10.0 µM
MAPK8 (human) = MAPK8 (human) (UniProt P45983); experiment: KINOMEscan competition binding; details: compound 10.0 µM
MYLK (human) = MYLK (human) (UniProt Q15746); experiment: KINOMEscan competition binding; details: compound 10.0 µM
PAK4 (human) = PAK4 (human) (UniProt O96013); experiment: KINOMEscan competition binding; details: compound 10.0 µM
PAK6 (human) = PAK6 (human) (UniProt Q9NQU5); experiment: KINOMEscan competition binding; details: compound 10.0 µM
PAK7 (human) = PAK7 (human) (UniProt Q9P286); experiment: KINOMEscan competition binding; details: compound 10.0 µM
PHKG2 (human) = PHKG2 (human) (UniProt P15735); experiment: KINOMEscan competition binding; details: compound 10.0 µM
PIM1 (human) [1] = target: PIM1 (human) (UniProt P11309); experiment: KINOMEscan competition binding; details: compound 10.0 µM
PIM2 (human) [2] = target: PIM2 (human) (UniProt Q9P1W9); experiment: KINOMEscan competition binding; details: compound 10.0 µM
PIM3 (human) = PIM3 (human) (UniProt Q86V86); experiment: KINOMEscan competition binding; details: compound 10.0 µM
PLK4 (human) = PLK4 (human) (UniProt O00444); experiment: KINOMEscan competition binding; details: compound 10.0 µM
RIPK4 (human) = RIPK4 (human) (UniProt P57078); experiment: KINOMEscan competition binding; details: compound 10.0 µM
STK16 (human) = STK16 (human) (UniProt O75716); experiment: KINOMEscan competition binding; details: compound 10.0 µM
STK17A (human) = STK17A (human) (UniProt Q9UEE5); experiment: KINOMEscan competition binding; details: compound 10.0 µM
STK17B (human) = STK17B (human) (UniProt O94768); experiment: KINOMEscan competition binding; details: compound 10.0 µM
TAOK1 (human) = TAOK1 (human) (UniProt Q7L7X3); experiment: KINOMEscan competition binding; details: compound 10.0 µM
TAOK3 (human) = TAOK3 (human) (UniProt Q9H2K8); experiment: KINOMEscan competition binding; details: compound 10.0 µM
TGFBR2 (human) = TGFBR2 (human) (UniProt P37173); experiment: KINOMEscan competition binding; details: compound 10.0 µM
TTK (human) = TTK (human) (UniProt P33981); experiment: KINOMEscan competition binding; details: compound 10.0 µM
[3] = target: TYK2 JH2 pseudokinase (human) (UniProt P29597); experiment: KINOMEscan competition binding; details: compound 10.0 µM
PIM1 (human) [4] = target: PIM1 (human) (UniProt P11309); experiment: SelectScreen, TR FRET
PIM2 (human) [5] = target: PIM2 (human) (UniProt Q9P1W9); experiment: SelectScreen, TR FRET
[6] = test system: EGFR (human), P00533 [747-751 del / S ins]; experiment: KINOMEscan competition binding; details: compound 10.0 µM
[7] = test system: EGFR (human), P00533 [G719S]; experiment: KINOMEscan competition binding; details: compound 10.0 µM
[8] = test system: EGFR (human), P00533 [P753S; 747-752 del]; experiment: KINOMEscan competition binding; details: compound 10.0 µM
MAP2K2 (human) = MAP2K2 (human) (UniProt P36507); experiment: KINOMEscan competition binding; details: compound 10.0 µM
MAP2K4 (human) = MAP2K4 (human) (UniProt P45985); experiment: KINOMEscan competition binding; details: compound 10.0 µM
PIK3C2B (human) = PIK3C2B (human) (UniProt O00750); experiment: KINOMEscan competition binding; details: compound 10.0 µM
PIK3CB (human) = PIK3CB (human) (UniProt P42338); experiment: KINOMEscan competition binding; details: compound 10.0 µM
PIK3CD (human) = PIK3CD (human) (UniProt O00329); experiment: KINOMEscan competition binding; details: compound 10.0 µM

Sequence of PIM1 (human) (P11309 whole entry, looked up): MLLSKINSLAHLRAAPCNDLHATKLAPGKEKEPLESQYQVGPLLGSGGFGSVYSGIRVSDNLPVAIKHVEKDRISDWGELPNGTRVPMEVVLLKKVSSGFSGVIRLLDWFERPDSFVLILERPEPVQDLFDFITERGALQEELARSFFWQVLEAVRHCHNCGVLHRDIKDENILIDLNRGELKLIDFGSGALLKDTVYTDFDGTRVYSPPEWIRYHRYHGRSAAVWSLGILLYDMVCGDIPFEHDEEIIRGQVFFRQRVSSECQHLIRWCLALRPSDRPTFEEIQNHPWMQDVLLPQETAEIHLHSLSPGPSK
Sequence of PIM2 (human) (Q9P1W9 whole entry, looked up): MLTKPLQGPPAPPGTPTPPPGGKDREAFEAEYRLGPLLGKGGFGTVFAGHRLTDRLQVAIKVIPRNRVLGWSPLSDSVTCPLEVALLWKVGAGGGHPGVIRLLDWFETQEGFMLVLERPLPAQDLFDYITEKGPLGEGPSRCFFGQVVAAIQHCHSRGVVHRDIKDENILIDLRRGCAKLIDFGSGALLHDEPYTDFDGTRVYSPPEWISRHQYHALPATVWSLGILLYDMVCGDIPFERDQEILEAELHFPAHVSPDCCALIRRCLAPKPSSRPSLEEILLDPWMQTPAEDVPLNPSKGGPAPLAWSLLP
Sequence of PAK7 (human) (Q9P286 whole entry, looked up): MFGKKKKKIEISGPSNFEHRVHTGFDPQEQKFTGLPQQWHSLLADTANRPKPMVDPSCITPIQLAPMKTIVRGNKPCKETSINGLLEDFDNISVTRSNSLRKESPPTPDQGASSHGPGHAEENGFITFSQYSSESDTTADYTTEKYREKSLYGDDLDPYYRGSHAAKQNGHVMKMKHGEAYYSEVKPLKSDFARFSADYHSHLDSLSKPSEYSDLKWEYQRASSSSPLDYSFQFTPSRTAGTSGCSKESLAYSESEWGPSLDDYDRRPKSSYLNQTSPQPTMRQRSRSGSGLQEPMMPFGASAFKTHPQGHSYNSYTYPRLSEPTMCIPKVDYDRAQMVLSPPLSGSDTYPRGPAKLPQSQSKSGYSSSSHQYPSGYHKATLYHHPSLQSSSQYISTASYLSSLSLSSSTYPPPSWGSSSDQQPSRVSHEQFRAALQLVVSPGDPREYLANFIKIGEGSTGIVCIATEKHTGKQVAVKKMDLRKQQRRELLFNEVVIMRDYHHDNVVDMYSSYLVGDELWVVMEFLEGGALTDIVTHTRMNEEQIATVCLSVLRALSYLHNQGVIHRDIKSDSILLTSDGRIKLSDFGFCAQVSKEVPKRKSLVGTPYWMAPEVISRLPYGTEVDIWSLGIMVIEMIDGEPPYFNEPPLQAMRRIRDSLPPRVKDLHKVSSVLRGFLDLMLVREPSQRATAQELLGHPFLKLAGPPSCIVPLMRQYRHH
Sequence of MAP2K4 (human) (P45985 whole entry, looked up): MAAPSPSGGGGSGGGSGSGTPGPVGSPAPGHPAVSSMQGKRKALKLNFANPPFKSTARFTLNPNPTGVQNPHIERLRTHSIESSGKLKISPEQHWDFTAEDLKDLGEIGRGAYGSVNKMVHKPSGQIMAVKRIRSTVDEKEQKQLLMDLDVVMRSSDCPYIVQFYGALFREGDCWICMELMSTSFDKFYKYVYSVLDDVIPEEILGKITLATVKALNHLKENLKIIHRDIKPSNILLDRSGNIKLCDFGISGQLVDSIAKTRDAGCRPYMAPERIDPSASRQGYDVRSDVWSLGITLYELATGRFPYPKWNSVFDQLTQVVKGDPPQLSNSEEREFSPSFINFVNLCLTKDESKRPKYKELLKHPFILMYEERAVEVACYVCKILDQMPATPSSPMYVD
Sequence of PAK6 (human) (Q9NQU5 whole entry, looked up): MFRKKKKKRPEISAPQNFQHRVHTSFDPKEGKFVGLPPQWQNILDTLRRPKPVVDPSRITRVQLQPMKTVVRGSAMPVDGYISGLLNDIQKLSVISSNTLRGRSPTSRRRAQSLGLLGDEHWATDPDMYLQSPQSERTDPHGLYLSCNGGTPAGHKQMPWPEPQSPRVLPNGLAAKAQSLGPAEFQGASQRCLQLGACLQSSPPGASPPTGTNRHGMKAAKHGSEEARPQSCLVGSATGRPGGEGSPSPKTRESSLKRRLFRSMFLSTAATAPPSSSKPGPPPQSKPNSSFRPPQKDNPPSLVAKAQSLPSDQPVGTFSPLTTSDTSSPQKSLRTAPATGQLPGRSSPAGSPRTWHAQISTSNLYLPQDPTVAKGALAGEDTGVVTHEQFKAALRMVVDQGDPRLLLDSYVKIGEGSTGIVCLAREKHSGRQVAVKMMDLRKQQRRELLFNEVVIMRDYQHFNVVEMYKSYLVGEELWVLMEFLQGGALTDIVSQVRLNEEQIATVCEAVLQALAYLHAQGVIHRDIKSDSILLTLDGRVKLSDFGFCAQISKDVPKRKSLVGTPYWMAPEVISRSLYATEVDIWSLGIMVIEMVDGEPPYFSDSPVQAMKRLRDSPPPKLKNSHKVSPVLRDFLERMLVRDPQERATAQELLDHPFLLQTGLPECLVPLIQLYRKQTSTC
Sequence of CAMK2B (human) (Q13554 whole entry, looked up): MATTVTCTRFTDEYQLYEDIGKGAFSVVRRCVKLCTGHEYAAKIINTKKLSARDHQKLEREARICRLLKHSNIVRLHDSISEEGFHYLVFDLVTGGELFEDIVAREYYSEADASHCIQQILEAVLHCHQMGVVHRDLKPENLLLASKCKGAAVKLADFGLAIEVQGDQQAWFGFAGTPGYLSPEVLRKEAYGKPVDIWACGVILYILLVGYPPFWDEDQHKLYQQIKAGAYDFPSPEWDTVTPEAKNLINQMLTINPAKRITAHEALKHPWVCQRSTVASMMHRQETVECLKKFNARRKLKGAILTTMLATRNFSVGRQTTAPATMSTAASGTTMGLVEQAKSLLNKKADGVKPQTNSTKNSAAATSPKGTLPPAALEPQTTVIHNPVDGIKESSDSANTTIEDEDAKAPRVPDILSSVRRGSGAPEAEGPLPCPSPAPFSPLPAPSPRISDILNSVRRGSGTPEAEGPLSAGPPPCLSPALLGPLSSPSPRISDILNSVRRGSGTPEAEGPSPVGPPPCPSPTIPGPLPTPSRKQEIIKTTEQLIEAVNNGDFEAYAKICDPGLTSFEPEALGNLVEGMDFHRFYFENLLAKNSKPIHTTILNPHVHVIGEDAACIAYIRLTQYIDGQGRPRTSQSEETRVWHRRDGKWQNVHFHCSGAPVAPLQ
Sequence of TTK (human) (P33981 whole entry, looked up): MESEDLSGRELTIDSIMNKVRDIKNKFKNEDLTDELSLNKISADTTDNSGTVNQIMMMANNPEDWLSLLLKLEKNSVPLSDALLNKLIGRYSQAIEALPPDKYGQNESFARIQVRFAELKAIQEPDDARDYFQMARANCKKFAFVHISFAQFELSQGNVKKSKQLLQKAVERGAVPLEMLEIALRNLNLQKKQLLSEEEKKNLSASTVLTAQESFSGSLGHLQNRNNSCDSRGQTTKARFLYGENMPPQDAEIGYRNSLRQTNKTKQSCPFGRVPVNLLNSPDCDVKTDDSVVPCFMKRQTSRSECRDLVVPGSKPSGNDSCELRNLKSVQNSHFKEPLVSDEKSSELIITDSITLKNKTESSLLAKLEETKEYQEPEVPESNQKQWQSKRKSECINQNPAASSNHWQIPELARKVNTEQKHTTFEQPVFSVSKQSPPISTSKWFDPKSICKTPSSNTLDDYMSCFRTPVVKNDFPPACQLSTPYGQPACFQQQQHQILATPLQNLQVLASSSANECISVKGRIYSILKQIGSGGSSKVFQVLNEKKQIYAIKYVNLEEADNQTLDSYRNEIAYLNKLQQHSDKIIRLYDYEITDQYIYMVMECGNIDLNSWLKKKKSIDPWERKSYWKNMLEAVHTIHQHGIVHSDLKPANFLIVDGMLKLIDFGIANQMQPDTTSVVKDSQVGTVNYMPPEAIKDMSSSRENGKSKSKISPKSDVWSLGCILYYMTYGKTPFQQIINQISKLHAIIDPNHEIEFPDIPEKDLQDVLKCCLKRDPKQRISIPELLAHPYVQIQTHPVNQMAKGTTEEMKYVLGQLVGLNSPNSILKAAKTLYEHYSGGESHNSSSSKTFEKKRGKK
Sequence of TAOK1 (human) (Q7L7X3 whole entry, looked up): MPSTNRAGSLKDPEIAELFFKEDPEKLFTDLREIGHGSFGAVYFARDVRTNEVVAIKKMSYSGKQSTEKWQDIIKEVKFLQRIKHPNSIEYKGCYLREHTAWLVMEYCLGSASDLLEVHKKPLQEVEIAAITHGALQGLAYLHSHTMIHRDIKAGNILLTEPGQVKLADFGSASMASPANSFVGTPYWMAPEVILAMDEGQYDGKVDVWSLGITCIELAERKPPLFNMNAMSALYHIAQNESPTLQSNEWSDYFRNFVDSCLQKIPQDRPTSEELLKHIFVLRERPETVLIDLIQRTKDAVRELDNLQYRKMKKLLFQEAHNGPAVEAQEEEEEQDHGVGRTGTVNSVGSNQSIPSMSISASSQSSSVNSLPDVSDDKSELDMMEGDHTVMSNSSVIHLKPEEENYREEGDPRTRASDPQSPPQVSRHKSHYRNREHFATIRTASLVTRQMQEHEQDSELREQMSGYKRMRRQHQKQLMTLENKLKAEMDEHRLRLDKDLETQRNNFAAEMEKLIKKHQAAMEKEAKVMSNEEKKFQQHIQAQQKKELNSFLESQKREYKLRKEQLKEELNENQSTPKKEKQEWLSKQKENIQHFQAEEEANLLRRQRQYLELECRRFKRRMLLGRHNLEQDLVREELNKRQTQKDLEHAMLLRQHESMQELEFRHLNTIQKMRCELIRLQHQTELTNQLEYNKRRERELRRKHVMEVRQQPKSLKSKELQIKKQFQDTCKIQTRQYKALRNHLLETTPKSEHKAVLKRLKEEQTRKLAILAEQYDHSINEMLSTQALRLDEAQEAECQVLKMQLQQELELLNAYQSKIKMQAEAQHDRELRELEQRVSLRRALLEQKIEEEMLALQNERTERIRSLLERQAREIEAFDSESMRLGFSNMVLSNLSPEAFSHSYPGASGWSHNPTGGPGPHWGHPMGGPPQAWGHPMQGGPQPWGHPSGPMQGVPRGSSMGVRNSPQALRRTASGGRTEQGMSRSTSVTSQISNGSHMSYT

Cc1cn(-c2cc(NC(=O)c3cccc4cc(-c5ccc(/C=C6\SC(=N)NC6=O)o5)ccc34)cc(C(F)(F)F)c2)cn1
kinase still bound, per cent of control (AAK1 (human)): 26% | kinase still bound, per cent of control (ACVR2B (human)): 24% | kinase still bound, per cent of control (CAMK1 (human)): 20% | kinase still bound, per cent of control (CAMK1D (human)): 29% | kinase still bound, per cent of control (CAMK2B (human)): 29% | kinase still bound, per cent of control (CLK2 (human)): 21% | kinase still bound, per cent of control (CSK (human)): 30% | kinase still bound, per cent of control (CSNK2A2 (human)): 34% | kinase still bound, per cent of control (DAPK1 (human)): 32% | kinase still bound, per cent of control (DAPK2 (human)): 7.1% | kinase still bound, per cent of control (DAPK3 (human)): 15% | kinase still bound, per cent of control (DDR1 (human)): 22% | kinase still bound, per cent of control (EPHA3 (human)): 32% | kinase still bound, per cent of control (GAK (human)): 28% | kinase still bound, per cent of control (GSK3A (human)): 32% | kinase still bound, per cent of control (HIPK1 (human)): 0.15% | kinase still bound, per cent of control (LATS2 (human)): 31% | kinase still bound, per cent of control (MAP2K3 (human)): 20% | kinase still bound, per cent of control (MAP3K7 (human)): 13% | kinase still bound, per cent of control (MAPK10 (human)): 16% | kinase still bound, per cent of control (MAPK8 (human)): 14% | kinase still bound, per cent of control (MYLK (human)): 21% | kinase still bound, per cent of control (PAK4 (human)): 29% | kinase still bound, per cent of control (PAK6 (human)): 30% | kinase still bound, per cent of control (PAK7 (human)): 34% | kinase still bound, per cent of control (PHKG2 (human)): 29% | kinase still bound, per cent of control (PIM1 (human) [1]): 1.8% | kinase still bound, per cent of control (PIM2 (human) [2]): 0.5% | kinase still bound, per cent of control (PIM3 (human)): 1.9% | kinase still bound, per cent of control (PLK4 (human)): 1% | kinase still bound, per cent of control (RIPK4 (human)): 1% | kinase still bound, per cent of control (STK16 (human)): 22% | kinase still bound, per cent of control (STK17A (human)): 2.4% | kinase still bound, per cent of control (STK17B (human)): 0.6% | kinase still bound, per cent of control (TAOK1 (human)): 5.8% | kinase still bound, per cent of control (TAOK3 (human)): 5.6% | kinase still bound, per cent of control (TGFBR2 (human)): 11% | kinase still bound, per cent of control (TTK (human)): 18% | kinase still bound, per cent of control [3]: 2.6% | IC50 (PIM1 (human) [4]): 5050 nM | IC50 (PIM2 (human) [5]): 662 nM

O=C1NC(=O)C(=Cc2ccc(-c3ccc(S(=O)(=O)N4CCNCC4)cc3)o2)C(=O)N1
kinase still bound, per cent of control [6]: 17% | kinase still bound, per cent of control [7]: 6.9% | kinase still bound, per cent of control [8]: 16% | kinase still bound, per cent of control (MAP2K2 (human)): 17% | kinase still bound, per cent of control (MAP2K4 (human)): 12% | kinase still bound, per cent of control (PIK3C2B (human)): 0.6% | kinase still bound, per cent of control (PIK3CB (human)): 0% | kinase still bound, per cent of control (PIK3CD (human)): 0%
